{"source": "patent US20090286866A1", "about": "“Double compartment skincare products comprising avermectin/milbemycin compounds” (GALDERMA S.A., priority 2006, published 2009)", "key": {"[1]": {"test": "Maximum solubility of ivermectin in various excipients", "type": "physicochemical", "conditions": "room temperature", "protocol": "Study of the maximum solubility of ivermectin at T=1 hour at room temperature in various excipients."}, "[2]": {"test": "Comparative study of the chemical stability of ivermectin in various excipients", "type": "physicochemical", "text": "Comparative study of the chemical stability of ivermectin in various excipients."}}}
{"substance": "ivermectin", "values": [{"measurement": "Maximum solubility", "setting": "[1]; in Alkyl benzoate, T=1 hour", "value": "1.60 % (m/m)"}, {"measurement": "Maximum solubility", "setting": "[1]; in Capric/caprylic triglycerides, T=1 hour", "value": "1.70 % (m/m)"}, {"measurement": "Maximum solubility", "setting": "[1]; in Diisopropyl adipate, T=1 hour", "value": "10.40 % (m/m)"}, {"measurement": "Maximum solubility", "setting": "[1]; in Dimethyl isosorbide, T=1 hour", "value": "35.20 % (m/m)"}, {"measurement": "Maximum solubility", "setting": "[1]; in Ethanol rectapur, T=1 hour", "value": "14.47 % (m/m)"}, {"measurement": "Maximum solubility", "setting": "[1]; in Macrogol 15 hydroxystearate, T=1 hour", "value": "10.60 % (m/m)"}, {"measurement": "Maximum solubility", "setting": "[1]; in N-Methyl-2-pyrrolidone, T=1 hour", "value": "58.13 % (m/m)"}, {"measurement": "Maximum solubility", "setting": "[1]; in Octyl dodecanol, T=1 hour", "value": "2.50 % (m/m)"}, {"measurement": "Maximum solubility", "setting": "[1]; in Oleyl alcohol, T=1 hour", "value": "3.48 % (m/m)"}, {"measurement": "Maximum solubility", "setting": "[1]; in PEG 400, T=1 hour", "value": "9.14 % (m/m)"}, {"measurement": "Maximum solubility", "setting": "[1]; in PPG 15 stearyl ether, T=1 hour", "value": "3.30 % (m/m)"}, {"measurement": "Maximum solubility", "setting": "[1]; in Phenoxyethanol, T=1 hour", "value": "15.70 % (m/m)"}, {"measurement": "Maximum solubility", "setting": "[1]; in Poloxamer 124, T=1 hour", "value": "7.50 % (m/m)"}, {"measurement": "Maximum solubility", "setting": "[1]; in Polysorbate 80, T=1 hour", "value": "10.31 % (m/m)"}, {"measurement": "Maximum solubility", "setting": "[1]; in Propylene glycol (PG), T=1 hour", "value": "21.83 % (m/m)"}, {"measurement": "Maximum solubility", "setting": "[1]; in Triacetin, T=1 hour", "value": "7.22 % (m/m)"}, {"measurement": "Amount after storage at 25° C. for 1 month", "setting": "[2]; in Benzyl alcohol, 25° C.", "value": 99.01, "unit": "%"}, {"measurement": "Amount after storage at 40° C. for 1 month", "setting": "[2]; in Benzyl alcohol, 40° C.", "value": 98.62, "unit": "%"}, {"measurement": "Amount at T0", "setting": "[2]; in Benzyl alcohol, T0", "value": 98.72, "unit": "%"}, {"measurement": "Amount after storage at 25° C. for 1 month", "setting": "[2]; in Diisopropyl adipate, 25° C.", "value": 97.19, "unit": "%"}, {"measurement": "Amount after storage at 40° C. for 1 month", "setting": "[2]; in Diisopropyl adipate, 40° C.", "value": 96.70, "unit": "%"}, {"measurement": "Amount at T0", "setting": "[2]; in Diisopropyl adipate, T0", "value": 102.5, "unit": "%"}, {"measurement": "Amount after storage at 25° C. for 1 month", "setting": "[2]; in Macrogol 15-hydroxystearate, 25° C.", "value": 95.32, "unit": "%"}, {"measurement": "Amount after storage at 40° C. for 1 month", "setting": "[2]; in Macrogol 15-hydroxystearate, 40° C.", "value": 71.88, "unit": "%"}, {"measurement": "Amount at T0", "setting": "[2]; in Macrogol 15-hydroxystearate, T0", "value": 98.76, "unit": "%"}, {"measurement": "Amount after storage at 25° C. for 1 month", "setting": "[2]; in PPG 15-stearyl ether, 25° C.", "value": 98.61, "unit": "%"}, {"measurement": "Amount after storage at 40° C. for 1 month", "setting": "[2]; in PPG 15-stearyl ether, 40° C.", "value": 98.07, "unit": "%"}, {"measurement": "Amount at T0", "setting": "[2]; in PPG 15-stearyl ether, T0", "value": 102.48, "unit": "%"}, {"measurement": "Amount after storage at 25° C. for 1 month", "setting": "[2]; in Phenoxyethanol, 25° C.", "value": 97.77, "unit": "%"}, {"measurement": "Amount after storage at 40° C. for 1 month", "setting": "[2]; in Phenoxyethanol, 40° C.", "value": 98.56, "unit": "%"}, {"measurement": "Amount at T0", "setting": "[2]; in Phenoxyethanol, T0", "value": 99.42, "unit": "%"}, {"measurement": "Amount after storage at 25° C. for 1 month", "setting": "[2]; in Poloxamer 124, 25° C.", "value": 98.19, "unit": "%"}, {"measurement": "Amount after storage at 40° C. for 1 month", "setting": "[2]; in Poloxamer 124, 40° C.", "value": 92.34, "unit": "%"}, {"measurement": "Amount at T0", "setting": "[2]; in Poloxamer 124, T0", "value": 98.09, "unit": "%"}, {"measurement": "Stability of ivermectin (in words)", "setting": "[2]; in diisopropyl adipate, benzyl alcohol, PPG-15 stearyl ether and phenoxyethanol, at room temperature or at 40° C.", "value": "good stability"}, {"measurement": "Stability of ivermectin (in words)", "setting": "[2]; in macrogol 15-hydroxystearate and in poloxamer, in particular at 40° C.", "value": "less stable"}]}
